Laboratory results: patent US6900010B2, “Compositions and methods for detecting human immunodeficiency virus” (MUSC Foundation For Research Development, priority 1999, dated 2005)

Tested on: HIV (strain GRCSF) in HeLaD4R4 cells
Assay: HIV infection of HeLaD4R4 cells with lacZ reporter, X-gal staining
Type: cell-based
Description: A recombinant cell line was established from human cervical cancer HeLa cells. The HeLa cells were cotransfected with an expression vector (pRepD4R4) and a vector (pTAR3Clac) at a 1:1 ratio. As shown in FIG. 2A the expression vector pRepD4R4 includes CD4 receptor and CXCR4 receptor genes that are separated by an IRES sequence. As shown FIG. 2B the vector pTAR3Clac includes a reporter sequence comprising a promoter region that includes three copies of TAR sequences and a CMV basic promoter, and a lacZ reporter gene whose expression is under the control of the promoter. The stably-transfected cells were selected by culturing in medium containing G418 at 900 μg/ml. Each clone of the cells selected was subsequently cultured in duplicates, and one of the duplicates was infected with a low titer HIV stock solution. The low-titer HIV stock was collected from supernatant of a HeLa cell culture that was transfected with a B-cell tropic HIV provirus DNA (strain GRCSF) and incubated for 3 days post transfection.
Upon infection of HIV contained in the stock solution, Tat protein expressed from the viral genome binds to TAR and induces expression of lacZ reporter gene to produce high level of β-galactosidase. The cell clones expressing β-galactosidase and stained blue with X-gal were identified, and the cells from the uninfected duplicate of the darkest blue colony were propagated. […]

Compound: Cc1cn([C@H]2C[C@H](N=[N+]=[N-])[C@@H](CO)O2)c(=O)[nH]c1=O [AZT, zidovudine]
- cells infected and stained blue (HIV replication and infection) (AZT 100 μg/ml, four days of incubation, HeLaD4R4 cells): only a few clusters of cells were infected and stained blue
- expression of the reporter gene (in the presence of AZT, FIG. 3F compared with FIGS. 3B-3E): significantly reduced
